Measured values: the supplement of paper PMC10307832

What was measured:
Assay in all cases: relative viability (nuclei count vs DMSO), 5 days (fraction); higher = more cells survive
LXF-289 = test system: LXF-289
In short: (§1)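 Each reported value is a median over duplicate plates. It expresses relative viability: treated-well nuclei count divided by vehicle-well nuclei count. Lung cancer cell lines in 1536-well plates were dosed by pin tool a day after seeding, alone with one drug or with a fixed anchor-drug dose plus five library-drug doses (not always all listed) in √10 steps, and nuclei were counted after 5 days.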

NCI-H661 = test system: NCI-H661
In short: as §1

NCI-H2087 = test system: NCI-H2087
In short: as §1

LC-2-ad = test system: LC-2-ad
In short: as §1

SK-MES-1 = test system: SK-MES-1
In short: as §1

BEN = test system: BEN
In short: as §1

LCLC-97TM1 = test system: LCLC-97TM1
In short: as §1

NCI-H838 = test system: NCI-H838
In short: as §1

ChaGo-K-1 = test system: ChaGo-K-1
In short: as §1

NCI-H650 = test system: NCI-H650
In short: as §1

HCC-78 = test system: HCC-78
In short: as §1

NCI-H1666 = test system: NCI-H1666
In short: as §1

LK-2 = test system: LK-2
In short: as §1

NCI-H1355 = test system: NCI-H1355
In short: as §1

NCI-H1944 = test system: NCI-H1944
In short: as §1

NCI-H1975 = test system: NCI-H1975
In short: as §1

NCI-H596 = test system: NCI-H596
In short: as §1

NCI-H1651 = test system: NCI-H1651
In short: as §1

LU99A = test system: LU99A
In short: as §1

NCI-H358 = test system: NCI-H358
In short: as §1

PC-3 [JPC-3] = test system: PC-3 [JPC-3]
In short: as §1

NCI-H2342 = test system: NCI-H2342
In short: as §1

O=c1cc(-c2cccc3c2Sc2ccccc2S3)oc(N2CCOCC2)c1 + COc1cc2c(Oc3ccc(NC(=O)C4(C(=O)Nc5ccc(F)cc5)CC4)cc3F)ccnc2cc1OCCCN1CCOCC1 [Foretinib] (partner 0.25 µM)
relative viability (LXF-289; first compound 0.08 µM): 0.935
relative viability (LXF-289; first compound 0.253 µM): 1.12
relative viability (LXF-289; first compound 0.8 µM): 0.974
relative viability (LXF-289; first compound 2.53 µM): 1.02
relative viability (LXF-289; first compound 8 µM): 1.1
relative viability (NCI-H661; first compound 0.08 µM): 1.02
relative viability (NCI-H661; first compound 0.253 µM): 1.02
relative viability (NCI-H661; first compound 0.8 µM): 0.92
relative viability (NCI-H661; first compound 2.53 µM): 0.952
relative viability (NCI-H661; first compound 8 µM): 1
relative viability (NCI-H2087; first compound 0.08 µM): 0.976
relative viability (NCI-H2087; first compound 0.253 µM): 1.13
relative viability (NCI-H2087; first compound 0.8 µM): 1.3
relative viability (NCI-H2087; first compound 2.53 µM): 1.23
relative viability (NCI-H2087; first compound 8 µM): 1.19
relative viability (LC-2-ad; first compound 0.08 µM): 0.888
relative viability (LC-2-ad; first compound 0.253 µM): 0.97
relative viability (LC-2-ad; first compound 0.8 µM): 0.94
relative viability (LC-2-ad; first compound 2.53 µM): 0.875
relative viability (LC-2-ad; first compound 8 µM): 0.873
relative viability (SK-MES-1; first compound 0.08 µM): 0.952
relative viability (SK-MES-1; first compound 0.253 µM): 1.13
relative viability (SK-MES-1; first compound 0.8 µM): 0.645
relative viability (SK-MES-1; first compound 2.53 µM): 0.611
relative viability (SK-MES-1; first compound 8 µM): 0.775
relative viability (BEN; first compound 0.08 µM): 0.485
relative viability (BEN; first compound 0.253 µM): 0.662
relative viability (BEN; first compound 0.8 µM): 0.674
relative viability (BEN; first compound 2.53 µM): 0.578
relative viability (BEN; first compound 8 µM): 0.97
relative viability (LCLC-97TM1; first compound 0.08 µM): 0.961
relative viability (LCLC-97TM1; first compound 0.253 µM): 1.02
relative viability (LCLC-97TM1; first compound 0.8 µM): 0.977
relative viability (LCLC-97TM1; first compound 2.53 µM): 0.887
relative viability (LCLC-97TM1; first compound 8 µM): 0.909
relative viability (NCI-H838; first compound 0.08 µM): 0.995
relative viability (NCI-H838; first compound 0.253 µM): 1.25
relative viability (NCI-H838; first compound 0.8 µM): 0.88
relative viability (NCI-H838; first compound 2.53 µM): 0.878
relative viability (NCI-H838; first compound 8 µM): 0.972
relative viability (ChaGo-K-1; first compound 0.08 µM): 0.883
relative viability (ChaGo-K-1; first compound 0.253 µM): 0.98
relative viability (ChaGo-K-1; first compound 0.8 µM): 1.03
relative viability (ChaGo-K-1; first compound 2.53 µM): 0.88
relative viability (ChaGo-K-1; first compound 8 µM): 0.861
relative viability (NCI-H650; first compound 0.08 µM): 0.998
relative viability (NCI-H650; first compound 0.253 µM): 1.09
relative viability (NCI-H650; first compound 0.8 µM): 1.04
relative viability (NCI-H650; first compound 8 µM): 1.01
relative viability (HCC-78; first compound 0.08 µM): 0.515
relative viability (HCC-78; first compound 0.253 µM): 0.561
relative viability (HCC-78; first compound 0.8 µM): 0.519
relative viability (HCC-78; first compound 2.53 µM): 0.514
relative viability (HCC-78; first compound 8 µM): 0.498
relative viability (NCI-H1666; first compound 0.08 µM): 1
relative viability (NCI-H1666; first compound 0.253 µM): 1.07
relative viability (NCI-H1666; first compound 0.8 µM): 1.13
relative viability (NCI-H1666; first compound 2.53 µM): 0.971
relative viability (NCI-H1666; first compound 8 µM): 0.908
relative viability (LK-2; first compound 0.08 µM): 0.933
relative viability (LK-2; first compound 0.253 µM): 1.24
relative viability (LK-2; first compound 0.8 µM): 1.23
relative viability (LK-2; first compound 2.53 µM): 0.997
relative viability (LK-2; first compound 8 µM): 1.25
relative viability (NCI-H1355; first compound 0.08 µM): 0.999
relative viability (NCI-H1355; first compound 0.253 µM): 1.12
relative viability (NCI-H1355; first compound 0.8 µM): 0.861
relative viability (NCI-H1355; first compound 2.53 µM): 0.977
relative viability (NCI-H1355; first compound 8 µM): 0.926
relative viability (NCI-H1944; first compound 0.08 µM): 0.832
relative viability (NCI-H1944; first compound 0.253 µM): 0.853
relative viability (NCI-H1944; first compound 0.8 µM): 0.899
relative viability (NCI-H1944; first compound 2.53 µM): 0.825
relative viability (NCI-H1944; first compound 8 µM): 0.951
relative viability (NCI-H1975; first compound 0.08 µM): 0.966
relative viability (NCI-H1975; first compound 0.253 µM): 0.924
relative viability (NCI-H1975; first compound 0.8 µM): 0.931
relative viability (NCI-H1975; first compound 2.53 µM): 0.946
relative viability (NCI-H1975; first compound 8 µM): 1.02
relative viability (NCI-H596; first compound 0.08 µM): 0.783
relative viability (NCI-H596; first compound 0.253 µM): 0.907
relative viability (NCI-H596; first compound 0.8 µM): 0.969
relative viability (NCI-H596; first compound 2.53 µM): 0.789
relative viability (NCI-H596; first compound 8 µM): 0.848
relative viability (NCI-H1651; first compound 0.08 µM): 0.798
relative viability (NCI-H1651; first compound 0.253 µM): 0.909
relative viability (NCI-H1651; first compound 0.8 µM): 0.861
relative viability (NCI-H1651; first compound 2.53 µM): 0.754
relative viability (NCI-H1651; first compound 8 µM): 0.979
relative viability (LU99A; first compound 0.08 µM): 0.825
relative viability (LU99A; first compound 0.253 µM): 0.841
relative viability (LU99A; first compound 0.8 µM): 1.04
relative viability (LU99A; first compound 2.53 µM): 0.829
relative viability (LU99A; first compound 8 µM): 1.13
relative viability (NCI-H358; first compound 0.08 µM): 0.622
relative viability (NCI-H358; first compound 0.253 µM): 0.753
relative viability (NCI-H358; first compound 0.8 µM): 0.635
relative viability (NCI-H358; first compound 2.53 µM): 0.825
relative viability (NCI-H358; first compound 8 µM): 0.797
relative viability (PC-3 [JPC-3]; first compound 0.08 µM): 1.06
relative viability (PC-3 [JPC-3]; first compound 0.253 µM): 1.08
relative viability (PC-3 [JPC-3]; first compound 0.8 µM): 1.16
relative viability (PC-3 [JPC-3]; first compound 2.53 µM): 1.01
relative viability (PC-3 [JPC-3]; first compound 8 µM): 1.2
relative viability (NCI-H2342; first compound 0.08 µM): 0.996
relative viability (NCI-H2342; first compound 0.253 µM): 1.04
relative viability (NCI-H2342; first compound 0.8 µM): 0.916
relative viability (NCI-H2342; first compound 2.53 µM): 0.917
relative viability (NCI-H2342; first compound 8 µM): 1.11
